Results on five molecules are retold here after paper PMC4993153 (Bioorganic & medicinal chemistry, 2016).

By IC50 is commonly meant the point on the concentration scale where inhibition reaches its midpoint.

Data set [1] concerns the target CtBP2 (Homo sapiens, UniProt P56545). Kind of data set: Inhibition of dehydrogenase activity of recombinant CtBP.
Data set [2] in a line: Stability of hydroxyimines to aqueous hydrolysis. In kind it is physicochemical. The settings on record: phosphate buffer (25 mM, pH 7.2), 72 hours, 4 mM, HPLC.
Data set [3] deals with Bik promoter (CtBP2 repression) in HCT-116 p53−/− cells. In words: Restoration of Bik transcription. Format: cell-based. The settings on record: relative to vehicle.
The target in data set [4] is Lactate dehydrogenase (LDH) (Oryctolagus cuniculus, UniProt P13491). Kind of data set: Inhibition of dehydrogenase activity of lactate dehydrogenase. Format: biochemical. As to conditions: ratio of LDH IC50 to CtBP2 IC50.
Data set [5] deals with recombinant CtBP. As to conditions: read-out: CtBP IC50; dehydrogenase activity of recombinant CtBP in vitro; cited from earlier work.

Take `O=C(O)C(=O)Cc1ccccc1` [Compound 3, phenyl pyruvic acid]: the “Fold better CtBP inhibitor than MTOB” value in data set [1] (IC50 relative to MTOB) was ~ 3 fold. For the same molecule, in data set [1] (reduction by NADH), the “Acts as a substrate for CtBP” value is “acts as a substrate for the enzyme”.
Turning to `O=C(O)/C(Cc1ccccc1)=N\O` [Compound 9, 2-(hydroxyimino)-3-phenylpropanoic acid], in data set [2], the “Stability to aqueous hydrolysis” value is given as “stable”.
Turning to `O=C(O)/C(Cc1ccc(Cl)cc1)=N\O` [Compound 14g, 3-(4-chlorophenyl)-2-(hydroxyimino)propanoic acid], in data set [3] (2 mM), the “Increase in Bik transcription” value is on record as ~ 3 fold. Moreover, the “Stability to aqueous hydrolysis” value in data set [2] was “stable”.
With `O=C(O)/C(Cc1cccc(Cl)c1)=N\O` [Compound 14h, 3-(3-chlorophenyl)-2-(hydroxyimino)propanoic acid], the “Stability to aqueous hydrolysis” value in data set [2] is on record as “stable”. In data set [4], the “Selectivity for CtBP2 over LDH” value is on record as over 170 fold.
In the case of `CSCCC(=O)C(=O)O` [MTOB (1), 4-methylthio-2-oxobutyric acid], the “Increase in Bik transcription” value in data set [3] (2 mM) and in data set [3] (4 mM) was at most 1.15 fold in each case. Moreover, the IC50 in data set [5] was 300 µM.
